Assay results published in patent US10087417B2, “Three-dimensional model of human cortex” (priority 2015, dated 2018).

Experiments:
Type in all cases: cell-based, human
neocortical organoids [1] = details: 3 μM cocaine 1 h every other day, days 32-44; measured day 44
Description: Endogenous ROS were measured by incubating neocortical organoids at day 44 with 100 μM 2′,7′-dichlorofluorescein diacetate (DCFH-DA) (Sigma-Aldrich) for 30 min with or without cocaine. The organoids were washed and dissolved in 1% Triton X-100 in PBS. Fluorescence for each sample was measured at an excitation wavelength of 485 nm, and an emission wavelength of 530 nm using a fluorescence microplate reader (Techan Genios). Protein concentration for each sample was determined using the BCA assay (Pierce BCA® Protein Assay Kits; Thermo Scientific), according to manufacturer's instructions. The level of endogenous ROS for each sample was determined by dividing the fluorescence units by the concentration of protein in the lysate.
Taking into consideration that cocaine concentrations in the fetal rat neocortex drop rapidly to negligible levels 1 h after cocaine administration (Lee et al, PLoS Med. 5:e117, 2008), and to create a physiologically-meaningful drug treatment schedule in vitro, the neocortical organoids were exposed to a pharmacologically-relevant dose of cocaine, 3 μM (Kindberg et al, Dis. Model Mech. 7:1397-1405, 2014), for 1 h every other day, from days 32-44. […] In the present model, post-mitotic neurons migrated toward the periphery of the NE. […] The percentage of BrdU^+ cells that expressed TUJ1 was increased by cocaine as compared to control (FIG. 5F and FIG. 6B).

neocortical organoids [2] = details: 3 μM cocaine days 32-44, days 51-52
Description: (§1) FIGS. 5A-5I is a series of panels showing neurodevelopmental effects of cocaine mediated by CYP3A5. FIG. 5A is an image showing RT-PCR analysis of expression of CYP3A family genes at different stages of neocortical organoid differentiation. “Neocortical organoids” indicates day 44 of differentiation. FIG. 5B is a graph showing ROS formation in the neocortical organoids in presence or absence of cocaine. Neocortical organoids were treated with 3 μM cocaine for 1 h every other day from day 32 to day 44, and endogenous ROS was measured at day 44. n=6. FIG. 5C is a graph showing effects of CYP3A5 or CYP3A43 knockdown on cocaine-induced ROS generation in H9 (dashed line, in the absence of cocaine). n=6. FIG. 5D is a graph showing proliferation of PAX6^+ NE cells of neocortical organoids in the presence or absence of cocaine in H9. Proliferation was examined at day 45 with 1 h BrdU (10 μM) incorporation. n=5. FIG. 5E is a graph showing effects of CYP3A5 or CYP3A43 knockdown on cocaine-induced inhibition of proliferation of PAX6^+ NE cells in H9 (dashed line, in the absence of cocaine). n=7. FIG. 5F is graph showing neuronal differentiation in neocortical organoids in the presence or absence of cocaine in H9. Neuronal differentiation was analyzed 24 h after 1 h BrdU (10 μM) treatment from day 51 to day 52. […] FIG. 5G is a graph showing effects of CYP3A5 or CYP3A43 knockdown on cocaine-induced premature neuronal differentiation in H9 (dashed line, in the absence of cocaine). n=7, FIG. 5H is a graph showing neural tissue development in the presence or absence of cocaine in H9. TUJ1^+ areas in the neocortical organoids were analyzed at day 66. TUJ1^+ areas expressed as percentages of total organoid area on day 24 are shown. n=6. FIG. 5I is a graph showing effects of CYP3A5 or CYP3A43 knockdown on cocaine-induced inhibition of neural tissue development in H9 (dashed line, in the absence of cocaine). n=6. Data are shown as means±SEM. Unpaired two-tailed Student's t-test for H9 and H14 in FIG. 5B, and for FIGS. 5D, 5F, and 5H. […]

[3] = test system: PAX6+ NE cells of neocortical organoids; details: 3 μM cocaine 1 h every other day, days 32-44; day 45; H9 and H14
Description: as §1

neocortical organoids [4] = details: 3 μM cocaine days 32-44; day 66; H9 and H14
Description: Adherent cells in culture were fixed with 4% PFA for 10 min, followed by PBS wash. Neocortical organoids embedded in collagen gel were immersed in 4% PFA for 20 min and cryoprotected in 20% sucrose in PBS for 20 min. Cryostat sections (10 μm) were thaw-mounted onto gelatin-subbed slides. Cells and tissue sections were blocked with 0.2% Triton X-100 in PBS supplemented with 5% BSA and 10% goat serum. Cells were then incubated with primary antibodies in 0.2% Triton X-100 in PBS with 5% BSA and 5% goat serum: rabbit anti-BF1 (1:100; Abcam), rat anti-CD133 (1:100; Millipore), rat anti-CTIP2 (1:50; Abcam), rabbit anti-CUX1 (1:100; Santa Cruz Biotechnology), rabbit anti-EMX1 (1:50; Sigma), mouse anti-gamma-tubulin (1:500; Sigma), rat anti-HOXB4 (1:50; DSHB), mouse anti-Ki67 (1:100; BD Biosciences), rabbit anti-N-cadherin (1:100; Abcam), mouse anti-Nestin (1:50; R&D Systems), mouse anti-NKX2.1 (1:200; Chemicon), mouse anti-PAX6 (1:50; DSHB), rabbit anti-PAX6 (1:300; Covance), rabbit anti-PH3 (1:500; Cell Signaling Technology), mouse anti-Reelin (1:200; Millipore), rabbit anti-TBR1 (1:1000; Abcam), and mouse anti-TUJ1 (1:2,000; Promega). […] TUJ1+ neocortical areas were calculated by normalization of TUJ1+ areas in the neocortical organoids at day 66 (using only sections from the center of each organoid) to organoid size at day 24. […]

[5] = test system: neocortical neurons generated from hPSCs

SMILES	ROS generation in neocortical organoids (neocortical organoids [1])	migration of BrdU-labeled TUJ1 neurons outwards to the periphery of the NE area (neocortical organoids [2]; BrdU 1 h pulse, 24 h chase)	percentage of BrdU+ cells that expressed TUJ1, compared to control (neocortical organoids [2]; H9 and H14)	proliferation of PAX6+ NE cells [3]	development of the TUJ1+ area (neocortical organoids [4])	action potentials recorded in current clamp mode [5]
COC(=O)[C@H]1[C@@H](OC(=O)c2ccccc2)C[C@@H]2CC[C@H]1N2C [cocaine]	ROS accumulation was observed	increased	increased	inhibited	significantly inhibited	–
NC1=N[C@H](O)[C@H]2[C@H]3O[C@]4(O)O[C@@H]([C@@H](O)[C@@]2(N1)[C@@H]4O)[C@]3(O)CO [tetrodotoxin]	–	–	–	–	–	blocked
